The values that follow come from patent publication US20230301909A1 (The University of Tokyo, priority 2020, published 2023).

SMILES strings stand for the structures.

The subject of this data set is human placenta. The experiment in a line: Human placental perfusion model (ex vivo placental permeability). In kind it is in vitro ADME. Particulars: FIG. 12A. Here is the method: For this Example, the permeability of polymer micelles, low molecular compounds and polymers of different sizes through the human placenta was evaluated using a human placental perfusion model.
The human placental perfusion model was created according to NPL 4 (K. Shintaku et. al., Drug Metab. Dispos. 37 (2009) 962) and NPL 5 (J. R. Huston et. al., Clin, Pharmacol. Ther, 90 (2011) 67). […] DACH-platin encapsulating micelles (30 nm and 70 nm particle sizes) (DACH-platin dose: 85.4 mg/L), oxaliplatin (2.7 mg/L.) and Cy3-labeled 8-arm PEG (fluorescence intensity: 3,000 (RFU)) were perfused for 60 minutes, and 1 ml of each solution was recovered every 5 minutes from the vein on the fetus side. The platinum contents of the recovered samples from the oxaliplatin-and DACH-platin encapsulating micelle-administered groups were measured by inductively coupled […] mass spectrometry. The fluorescence intensities of the polymers were quantified by HPLC. […]
The human placental perfusion model was created according to NPL 4 (K. Shintaku et. al., Drug Metab. Dispos. 37 (2009) 962) and NPL 5 (J. R. Huston et. al., Clin. Pharmacol. Ther. 90 (2011) 67). […] The pH of the recovered sample was adjusted, releasing the nicotinamide, and the nicotinamide in the solution was measured by HPLC (detector: EXTREMA by JASCO Corp., column: TSKgel ODS-120H by Tosoh Corp., 1.9 μm). […]

Consider `O=C1[O][Pt]2([NH][C@@H]3CCCC[C@H]3[NH]2)[O]C1=O` [oxaliplatin], for which, where the note is “human placental perfusion”, the “accumulation in the placenta” value is recorded as “accumulation of oxaliplatin in the placenta”. For the setting “perfused for 60 minutes, fetus-side vein samples”, the “permeation through the placenta” value is “permeated the placenta”.
